Reference: patent US5026848A, “Novel generation of heteroaryloxyalkyl heterocycles with antipicornaviruses activities” (Synphar Laboratories Incorporated, priority 1988, dated 1991)
Converted amounts (≈) assume the structure as drawn. Where two headings read alike, the source gives them in different places.

Key:
WI38 cells = test: Toxicity to WI38 cells (change in morphology in / growth inhibition of 25% of the cells); type: cell-based
Rhinovirus 1A = test: Anti-rhinovirus activity, cytopathic effect inhibition / neutral red dye uptake, type 1A; type: cell-based; details: Enterovirus, WI-38; Table I; WI38 cells, 33° C., 3-4 days; NA = Not active; read-out: MIC50 Rhinovirus 1A
Rhinovirus 1B = test: Anti-rhinovirus activity, cytopathic effect inhibition / neutral red dye uptake, type 1B; type: cell-based; details: Enterovirus, WI-38; Table II; one of seven commonest serotypes; read-out: MIC 50 Rhinovirus Type 1B
Rhinovirus 2 = test: Anti-rhinovirus activity, cytopathic effect inhibition / neutral red dye uptake, type 2; type: cell-based; details: Enterovirus, WI-38; Table II; one of seven commonest serotypes; read-out: MIC 50 Rhinovirus Type 2
Rhinovirus 4 = test: Anti-rhinovirus activity, cytopathic effect inhibition / neutral red dye uptake, type 4; type: cell-based; details: Enterovirus, WI-38; Table II; one of seven commonest serotypes; read-out: MIC 50 Rhinovirus Type 4
Rhinovirus 15 = test: Anti-rhinovirus activity, cytopathic effect inhibition / neutral red dye uptake, type 15; type: cell-based; details: Enterovirus, WI-38; Table II; one of seven commonest serotypes; read-out: MIC 50 Rhinovirus Type 15
Rhinovirus 17 = test: Anti-rhinovirus activity, cytopathic effect inhibition / neutral red dye uptake, type 17; type: cell-based; details: Enterovirus, WI-38; Table II; read-out: MIC 50 Rhinovirus Type 17
Rhinovirus 23 = test: Anti-rhinovirus activity, cytopathic effect inhibition / neutral red dye uptake, type 23; type: cell-based; details: Enterovirus, WI-38; Table II; read-out: MIC 50 Rhinovirus Type 23
Rhinovirus 29 = test: Anti-rhinovirus activity, cytopathic effect inhibition / neutral red dye uptake, type 29; type: cell-based; details: Enterovirus, WI-38; Table II; one of seven commonest serotypes; read-out: MIC 50 Rhinovirus Type 29
Rhinovirus 30 = test: Anti-rhinovirus activity, cytopathic effect inhibition / neutral red dye uptake, type 30; type: cell-based; details: Enterovirus, WI-38; Table II; read-out: MIC 50 Rhinovirus Type 30
Rhinovirus 31 = test: Anti-rhinovirus activity, cytopathic effect inhibition / neutral red dye uptake, type 31; type: cell-based; details: Enterovirus, WI-38; Table II; one of seven commonest serotypes; read-out: MIC 50 Rhinovirus Type 31
Rhinovirus 32 = test: Anti-rhinovirus activity, cytopathic effect inhibition / neutral red dye uptake, type 32; type: cell-based; details: Enterovirus, WI-38; Table II; read-out: MIC 50 Rhinovirus Type 32
Rhinovirus 36 = test: Anti-rhinovirus activity, cytopathic effect inhibition / neutral red dye uptake, type 36; type: cell-based; details: Enterovirus, WI-38; Table II; read-out: MIC 50 Rhinovirus Type 36
Rhinovirus 39 = test: Anti-rhinovirus activity, cytopathic effect inhibition / neutral red dye uptake, type 39; type: cell-based; details: Enterovirus, WI-38
Rhinovirus 44 = test: Anti-rhinovirus activity, cytopathic effect inhibition / neutral red dye uptake, type 44; type: cell-based; details: Enterovirus, WI-38; Table II; read-out: MIC 50 Rhinovirus Type 44
Rhinovirus 49 = test: Anti-rhinovirus activity, cytopathic effect inhibition / neutral red dye uptake, type 49; type: cell-based; details: Enterovirus, WI-38; Table II; read-out: MIC 50 Rhinovirus Type 49
Rhinovirus 53 = test: Anti-rhinovirus activity, cytopathic effect inhibition / neutral red dye uptake, type 53; type: cell-based; details: Enterovirus, WI-38; Table II; read-out: MIC 50 Rhinovirus Type 53
Rhinovirus 56 = test: Anti-rhinovirus activity, cytopathic effect inhibition / neutral red dye uptake, type 56; type: cell-based; details: Enterovirus, WI-38; Table II; read-out: MIC 50 Rhinovirus Type 56
Rhinovirus 63 = test: Anti-rhinovirus activity, cytopathic effect inhibition / neutral red dye uptake, type 63; type: cell-based; details: Enterovirus, WI-38; Table II; read-out: MIC 50 Rhinovirus Type 63
Rhinovirus 86 = test: Anti-rhinovirus activity, cytopathic effect inhibition / neutral red dye uptake, type 86; type: cell-based; details: Enterovirus, WI-38; Table II; read-out: MIC 50 Rhinovirus Type 86
Rhinovirus 88 = test: Anti-rhinovirus activity, cytopathic effect inhibition / neutral red dye uptake, type 88; type: cell-based; details: Enterovirus, WI-38; Table II; read-out: MIC 50 Rhinovirus Type 88
Polio 1 = test: microbe, parasite or virus in culture; type: cell-based; details: Enterovirus, read-out: MIC 50 Polio 1
Coxsacki-A9 = test: Activity against other picornaviruses, Coxsacki-A9; type: cell-based; details: Enterovirus, read-out: MIC 50 Cox. A9
Coxsacki-A21 = test: Activity against other picornaviruses, Coxsacki-A21; type: cell-based; details: Enterovirus, read-out: MIC 50 Cox. A21
Coxsacki-B1 = test: Activity against other picornaviruses, Coxsacki-B1; type: cell-based; details: Enterovirus, read-out: MIC 50 Cox. B1
Coxsacki-B4 = test: Activity against other picornaviruses, Coxsacki-B4; type: cell-based; details: Enterovirus, read-out: MIC 50 Cox. B4
Echo-7 = test: Activity against other picornaviruses, Echo-7; type: cell-based; details: Enterovirus, read-out: MIC 50 Echo 7
Echo-11 = test: Activity against other picornaviruses, Echo-11; type: cell-based; details: Enterovirus, read-out: MIC 50 Echo 11
Enterovirus serotypes = type: cell-based; details: for All Enterovirus Serotypes (number of serotypes active / tested): Table III, numerator, denominator 7, but 5 for compound 8
HRV-1A and HRV-39 = test: Anti-rhinovirus activity against HRV-1A and HRV-39; details: in words
[1] = system: 20 serotypes of rhinovirus; test: Anti-rhinovirus activity against a panel of 20 serotypes; details: Table II; numerator; denominator 20, but 10 for compound 8 and 6 for compound 30
[2] = Table I, concentration with change in morphology in 25% of WI38 cells
[3] = Table I, WI38 cells, 33° C., 3-4 days, read-out: MIC50 Rhinovirus 39

Cc1cc(CCCCCCCOc2cc(C)nc3ccccc23)on1 [Compound 9, 5-[7-(2-methylquinolin-4-yl)oxyheptyl]-3-methisoxazole]
Toxicity (WI38 cells; [2]): 50 µg/mL
Toxicity (WI38 cells; Table II): 50 µg/mL
Toxicity (WI38 cells; Table III): 50 µg/mL
EC50 (Rhinovirus 1A): 5 µg/mL (≈ 14.8 µM)
IC50 (Rhinovirus 1B): 10 µg/mL (≈ 29.5 µM)
IC50 (Rhinovirus 2): 1 µg/mL (≈ 2.95 µM)
IC50 (Rhinovirus 4): 10 µg/mL (≈ 29.5 µM)
IC50 (Rhinovirus 15): 5 µg/mL (≈ 14.8 µM)
IC50 (Rhinovirus 17): > 25 µg/mL
IC50 (Rhinovirus 23): 5 µg/mL (≈ 14.8 µM)
IC50 (Rhinovirus 29): 5 µg/mL (≈ 14.8 µM)
IC50 (Rhinovirus 30): 0.5 µg/mL (≈ 1.48 µM)
EC50 (Rhinovirus 31): 1 µg/mL (≈ 2.95 µM)
EC50 (Rhinovirus 32): 10 µg/mL (≈ 29.5 µM)
EC50 (Rhinovirus 36): 10 µg/mL (≈ 29.5 µM)
EC50 (Rhinovirus 39; [3]): 1 µg/mL (≈ 2.95 µM)
EC50 (Rhinovirus 39; Table II, read-out: MIC 50 Rhinovirus Type 39): 5 µg/mL (≈ 14.8 µM)
EC50 (Rhinovirus 44): 1 µg/mL (≈ 2.95 µM)
EC50 (Rhinovirus 49): 10 µg/mL (≈ 29.5 µM)
EC50 (Rhinovirus 53): 5 µg/mL (≈ 14.8 µM)
EC50 (Rhinovirus 56): 5 µg/mL (≈ 14.8 µM)
EC50 (Rhinovirus 63): 5 µg/mL (≈ 14.8 µM)
EC50 (Rhinovirus 86): 5 µg/mL (≈ 14.8 µM)
EC50 (Rhinovirus 88): < 0.5 µg/mL
EC50 (Polio 1): > 25 µg/mL
EC50 (Coxsacki-A9): > 25 µg/mL
IC50 (Coxsacki-A21): 10 µg/mL (≈ 29.5 µM)
IC50 (Coxsacki-B1): > 25 µg/mL
IC50 (Coxsacki-B4): 10 µg/mL (≈ 29.5 µM)
IC50 (Echo-7): > 25 µg/mL
IC50 (Echo-11): > 25 µg/mL
inhibitory activity against the members of the Entero virus family (Enterovirus serotypes): remarkable inhibitory activity
All Enterovirus Serotypes (number of serotypes active / tested) (Enterovirus serotypes): 2
inhibitory activity against HRV-1A and HRV-39 in vitro (HRV-1A and HRV-39): remarkably inhibitory activity
All Rhinovirus Serotypes (number of serotypes active / tested) [1]: 19

Cc1cnsc1CCCCCCOc1ccc2oc3ccccc3c2c1 [Compound 19]
Toxicity (WI38 cells; [2]): 50 µg/mL
Toxicity (WI38 cells; Table II): 50 µg/mL
Toxicity (WI38 cells; Table III): 50 µg/mL
EC50 (Rhinovirus 1A): 10 µg/mL (≈ 27.4 µM)
IC50 (Rhinovirus 1B): 5 µg/mL (≈ 13.7 µM)
IC50 (Rhinovirus 2): 10 µg/mL (≈ 27.4 µM)
IC50 (Rhinovirus 4): > 25 µg/mL
IC50 (Rhinovirus 15): 10 µg/mL (≈ 27.4 µM)
IC50 (Rhinovirus 17): > 25 µg/mL
IC50 (Rhinovirus 23): 10 µg/mL (≈ 27.4 µM)
IC50 (Rhinovirus 29): 10 µg/mL (≈ 27.4 µM)
IC50 (Rhinovirus 30): 0.5 µg/mL (≈ 1.37 µM)
EC50 (Rhinovirus 31): > 25 µg/mL
EC50 (Rhinovirus 32): > 25 µg/mL
EC50 (Rhinovirus 36): > 25 µg/mL
EC50 (Rhinovirus 39; [3]): 5 µg/mL (≈ 13.7 µM)
EC50 (Rhinovirus 44): < 0.5 µg/mL
EC50 (Rhinovirus 49): > 25 µg/mL
EC50 (Rhinovirus 53): 10 µg/mL (≈ 27.4 µM)
EC50 (Rhinovirus 56): 10 µg/mL (≈ 27.4 µM)
EC50 (Rhinovirus 63): 10 µg/mL (≈ 27.4 µM)
EC50 (Rhinovirus 86): 10 µg/mL (≈ 27.4 µM)
EC50 (Rhinovirus 88): 1 µg/mL (≈ 2.74 µM)
EC50 (Polio 1): > 25 µg/mL
EC50 (Coxsacki-A9): 10 µg/mL (≈ 27.4 µM)
IC50 (Coxsacki-A21): 10 µg/mL (≈ 27.4 µM)
IC50 (Coxsacki-B1): 5 µg/mL (≈ 13.7 µM)
IC50 (Coxsacki-B4): > 25 µg/mL
IC50 (Echo-7): 25 µg/mL (≈ 68.4 µM)
IC50 (Echo-11): > 25 µg/mL
inhibitory activity against the members of the Entero virus family (Enterovirus serotypes): remarkable inhibitory activity
All Enterovirus Serotypes (number of serotypes active / tested) (Enterovirus serotypes): 4
inhibitory activity against HRV-1A and HRV-39 in vitro (HRV-1A and HRV-39): remarkably inhibitory activity
All Rhinovirus Serotypes (number of serotypes active / tested) [1]: 14

c1ccc2c(c1)oc1ccc(OCCCCCCc3ccns3)cc12 [Compound 25]
Toxicity (WI38 cells; [2]): 50 µg/mL
Toxicity (WI38 cells; Table II): 50 µg/mL
Toxicity (WI38 cells; Table III): 50 µg/mL
EC50 (Rhinovirus 1A): 10 µg/mL (≈ 28.5 µM)
IC50 (Rhinovirus 1B): 5 µg/mL (≈ 14.2 µM)
IC50 (Rhinovirus 2): 20 µg/mL (≈ 56.9 µM)
IC50 (Rhinovirus 4): > 25 µg/mL
IC50 (Rhinovirus 15): 10 µg/mL (≈ 28.5 µM)
IC50 (Rhinovirus 17): 10 µg/mL (≈ 28.5 µM)
IC50 (Rhinovirus 23): 5 µg/mL (≈ 14.2 µM)
IC50 (Rhinovirus 29): 5 µg/mL (≈ 14.2 µM)
IC50 (Rhinovirus 30): 10 µg/mL (≈ 28.5 µM)
EC50 (Rhinovirus 31): > 25 µg/mL
EC50 (Rhinovirus 32): 10 µg/mL (≈ 28.5 µM)
EC50 (Rhinovirus 36): > 25 µg/mL
EC50 (Rhinovirus 39; [3]): 5 µg/mL (≈ 14.2 µM)
EC50 (Rhinovirus 44): 5 µg/mL (≈ 14.2 µM)
EC50 (Rhinovirus 49): > 25 µg/mL
EC50 (Rhinovirus 53): 10 µg/mL (≈ 28.5 µM)
EC50 (Rhinovirus 56): 10 µg/mL (≈ 28.5 µM)
EC50 (Rhinovirus 63): 5 µg/mL (≈ 14.2 µM)
EC50 (Rhinovirus 86): 10 µg/mL (≈ 28.5 µM)
EC50 (Rhinovirus 88): 10 µg/mL (≈ 28.5 µM)
EC50 (Polio 1): 10 µg/mL (≈ 28.5 µM)
EC50 (Coxsacki-A9): 10 µg/mL (≈ 28.5 µM)
IC50 (Coxsacki-A21): 5 µg/mL (≈ 14.2 µM)
IC50 (Coxsacki-B1): > 25 µg/mL
IC50 (Coxsacki-B4): > 25 µg/mL
IC50 (Echo-7): 5 µg/mL (≈ 14.2 µM)
IC50 (Echo-11): > 25 µg/mL
inhibitory activity against the members of the Entero virus family (Enterovirus serotypes): remarkable inhibitory activity
All Enterovirus Serotypes (number of serotypes active / tested) (Enterovirus serotypes): 4
inhibitory activity against HRV-1A and HRV-39 in vitro (HRV-1A and HRV-39): remarkably inhibitory activity
All Rhinovirus Serotypes (number of serotypes active / tested) [1]: 16
